Source: US6355799B1, “Substituted benzene compounds, process for their preparation, and herbicidal and defoliant compositions containing them” (ISK Americas Incorporated, priority 1997, dated 2002)

Assays:
Format in all cases: in vivo
[1] = test system: barnyardgrass (Echinochloa crus-galli, ECHCG); test: Pre-emerge test, greenhouse herbicide activity screening; conditions: rating scale 0-100, 14 days after application
How it was run: (§1)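 Compounds in acetone were track-sprayed at 187 l/ha, 15–1000 g ai/ha, onto sandy loam pots. Pre-emerge seeds were sown one day before spraying, with surface watering afterwards. Post-emerge plants were at the 2–3 leaf stage and sprayed with 0.25% v/v non-ionic surfactant. Injury was rated 0–100 at 14 days.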

[2] = test system: lambsquarters (Chenopodium album, CHEAL); test: as above; conditions: rating scale 0-100, 14 days after application
How it was run: as §1

[3] = test system: ivyleaf morningglory (Ipomoea hederacea, IPOHE); test: as above; conditions: rating scale 0-100, 14 days after application
How it was run: as §1

[4] = test system: velvetleaf (Abutilon theophrasti, ABUTH); test: as above; conditions: rating scale 0-100, 14 days after application
How it was run: as §1

[5] = test system: johnsongrass (Sorghum halepense, SORHA); test: as above; conditions: rating scale 0-100, 14 days after application
How it was run: as §1

[6] = test system: sicklepod (Cassia obtusifolia, CASOB); test: as above; conditions: rating scale 0-100, 14 days after application
How it was run: as §1

[7] = test system: large crabgrass (Digitaria sanguinalis, DIGSA); test: as above; conditions: rating scale 0-100, 14 days after application
How it was run: as §1

[8] = test system: green foxtail (Setaria viridis, SETVI); test: as above; conditions: rating scale 0-100, 14 days after application
How it was run: as §1

[9] = test system: redroot pigweed (Amaranthus retroflexus, AMARE); test: Post-emerge test, greenhouse herbicide activity screening; conditions: post-emerge, phytotoxicity rating 0-100 at 14 days after application
How it was run: (§2)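 Rating: 0–100 visual injury, 14 DAA. Application: acetone, 187 l/ha, 15–1000 g ai/ha, flat-fan track sprayer with nozzle 40–45 cm above soil or canopy. Post-emerge runs used 0.25% v/v surfactant on 2–3 leaf plants.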

[10] = test system: barnyardgrass (Echinochloa crus-galli, ECHCG); test: as above; conditions: post-emerge, phytotoxicity rating 0-100 at 14 days after application
How it was run: as §2

[11] = test system: lambsquarters (Chenopodium album, CHEAL); test: as above; conditions: post-emerge, phytotoxicity rating 0-100 at 14 days after application
How it was run: as §2

[12] = test system: ivyleaf morningglory (Ipomoea hederacea, IPOHE); test: as above; conditions: post-emerge, phytotoxicity rating 0-100 at 14 days after application
How it was run: as §2

[13] = test system: velvetleaf (Abutilon theophrasti, ABUTH); test: as above; conditions: post-emerge, phytotoxicity rating 0-100 at 14 days after application
How it was run: as §2

[14] = test system: johnsongrass (Sorghum halepense, SORHA); test: as above; conditions: post-emerge, phytotoxicity rating 0-100 at 14 days after application
How it was run: as §2

[15] = test system: sicklepod (Cassia obtusifolia, CASOB); test: as above; conditions: post-emerge, phytotoxicity rating 0-100 at 14 days after application
How it was run: as §2

[16] = test system: large crabgrass (Digitaria sanguinalis, DIGSA); test: as above; conditions: post-emerge, phytotoxicity rating 0-100 at 14 days after application
How it was run: as §2

[17] = test system: green foxtail (Setaria viridis, SETVI); test: as above; conditions: post-emerge, phytotoxicity rating 0-100 at 14 days after application
How it was run: as §2

[18] = test system: upland rice (Oryza sp., var. Tebonnet, RICE); test: Post-emerge test, crop safety; conditions: post-emerge, crop damage rating 0-100 at 14 days after application
How it was run: as §1

[19] = test system: field corn (Zea mays L., var. Dekalb 535, CORN); test: Post-emerge test, crop safety; conditions: post-emerge, crop damage rating 0-100 at 14 days after application
How it was run: as §1

[20] = test system: redroot pigweed (Amaranthus retroflexus, AMARE); test: Pre-emerge test, greenhouse herbicide activity screening; conditions: rating scale 0-100, 14 days after application
How it was run: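 Herbicidal damage is scored 0 (none) to 100 (complete plant death) two weeks after a simulated field spray. Rates span 15–1000 g ai/ha, delivered in acetone at 187 l/ha. For post-emergence treatments, plants have 2–3 leaves and the spray carries 0.25% v/v non-ionic surfactant.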

[21] = test system: upland rice (Oryza sp., var. Tebonnet, RICE); test: Pre-emerge test, crop safety; conditions: rating scale 0-100, 14 days after application
How it was run: as §2

[22] = test system: field corn (Zea mays L., var. Dekalb 535, CORN); test: Pre-emerge test, crop safety; conditions: rating scale 0-100, 14 days after application
How it was run: as §2

Compound: O=C(Nc1cc(Cl)ccc1N1C(=O)C2CCCCN2C1=O)c1ccc2ccccc2c1 (centres unmarked) [12-8]
- Pre-emerge herbicidal activity, phytotoxicity rating ECHCG ([1]; 63 g ai/ha): 0
- Pre-emerge herbicidal activity, phytotoxicity rating ECHCG ([1]; 250 g ai/ha): 40
- Pre-emerge herbicidal activity, phytotoxicity rating CHEAL ([2]; 63 g ai/ha): 100
- Pre-emerge herbicidal activity, phytotoxicity rating CHEAL ([2]; 250 g ai/ha): 100
- Pre-emerge herbicidal activity, phytotoxicity rating IPOHE ([3]; 63 g ai/ha): 0
- Pre-emerge herbicidal activity, phytotoxicity rating IPOHE ([3]; 250 g ai/ha): 40
- Pre-emerge herbicidal activity, phytotoxicity rating ABUTH ([4]; 63 g ai/ha): 0
- Pre-emerge herbicidal activity, phytotoxicity rating ABUTH ([4]; 250 g ai/ha): 100
- Pre-emerge herbicidal activity, phytotoxicity rating SORHA ([5]; 63 g ai/ha): 10
- Pre-emerge herbicidal activity, phytotoxicity rating SORHA ([5]; 250 g ai/ha): 40
- Pre-emerge herbicidal activity, phytotoxicity rating CASOB ([6]; 63 g ai/ha): 0
- Pre-emerge herbicidal activity, phytotoxicity rating CASOB ([6]; 250 g ai/ha): 20
- Pre-emerge herbicidal activity, phytotoxicity rating DIGSA ([7]; 63 g ai/ha): 50
- Pre-emerge herbicidal activity, phytotoxicity rating DIGSA ([7]; 250 g ai/ha): 100
- Pre-emerge herbicidal activity, phytotoxicity rating SETVI ([8]; 63 g ai/ha): 60
- Pre-emerge herbicidal activity, phytotoxicity rating SETVI ([8]; 250 g ai/ha): 100
- Post-emerge Herbicidal Activity AMARE ([9]; 63 g ai/ha): 80
- Post-emerge Herbicidal Activity AMARE ([9]; 250 g ai/ha): 90
- Post-emerge Herbicidal Activity ECHCG ([10]; 63 g ai/ha): 10
- Post-emerge Herbicidal Activity ECHCG ([10]; 250 g ai/ha): 10
- Post-emerge Herbicidal Activity CHEAL ([11]; 63 g ai/ha): 95
- Post-emerge Herbicidal Activity CHEAL ([11]; 250 g ai/ha): 99
- Post-emerge Herbicidal Activity IPOHE ([12]; 63 g ai/ha): 90
- Post-emerge Herbicidal Activity IPOHE ([12]; 250 g ai/ha): 80
- Post-emerge Herbicidal Activity ABUTH ([13]; 63 g ai/ha): 100
- Post-emerge Herbicidal Activity ABUTH ([13]; 250 g ai/ha): 100
- Post-emerge Herbicidal Activity SORHA ([14]; 63 g ai/ha): 0
- Post-emerge Herbicidal Activity SORHA ([14]; 250 g ai/ha): 10
- Post-emerge Herbicidal Activity CASOB ([15]; 63 g ai/ha): 50
- Post-emerge Herbicidal Activity CASOB ([15]; 250 g ai/ha): 70
- Post-emerge Herbicidal Activity DIGSA ([16]; 63 g ai/ha): 10
- Post-emerge Herbicidal Activity DIGSA ([16]; 250 g ai/ha): 0
- Post-emerge Herbicidal Activity SETVI ([17]; 63 g ai/ha): 20
- Post-emerge Herbicidal Activity SETVI ([17]; 250 g ai/ha): 25
- Post-emerge Herbicidal Activity RICE ([18]; 63 g ai/ha): 20
- Post-emerge Herbicidal Activity RICE ([18]; 250 g ai/ha): 15
- Post-emerge Herbicidal Activity CORN ([19]; 63 g ai/ha): 5
- Post-emerge Herbicidal Activity CORN ([19]; 250 g ai/ha): 10
- Pre-emerge herbicidal activity, phytotoxicity rating AMARE ([20]; 63 g ai/ha): 100
- Pre-emerge herbicidal activity, phytotoxicity rating AMARE ([20]; 250 g ai/ha): 100
- Pre-emerge phytotoxicity rating, crop damage RICE ([21]; 63 g ai/ha): 30
- Pre-emerge phytotoxicity rating, crop damage RICE ([21]; 250 g ai/ha): 40
- Pre-emerge phytotoxicity rating, crop damage CORN ([22]; 63 g ai/ha): 0
- Pre-emerge phytotoxicity rating, crop damage CORN ([22]; 250 g ai/ha): 0
